Reference: patent US20190225650A1, “PEPTIDOMIMETIC MACROCYCLES AND USE THEREOF IN REGULATING HIF1ALPHA” (AILERON THERAPEUTICS, INC., priority 2013, published 2019)
Bridge positions count the residues as written; N and C are the ends. Square brackets hold non-standard residues; d marks the D form. Peptide text beside a SMILES is read from it. S5 = C=CCCC[C@](C)(N)C(=O)O; Nle = CCCC[C@H](N)C(=O)O; Dap = NC[C@H](N)C(=O)O

System: HRE-bla ME-180 cells
Assay: Reporter gene assay (HRE-bla ME-180 HIF reporter, GeneBLAzer)
Type: cell-based, human
Conditions: for EC50: 24 hour normoxia
Procedure, shortened: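 A FRET β-lactamase readout of HIF transcription was used. After compound treatment in 0.3% DMSO/media under normoxic conditions, 20 μl of 6× LiveBLAzer-FRET B/G (CCF4-AM) substrate was added. Plates sat 3 hr at room temperature in the dark and were read at 409 Ex/460Em and 409Ex/530Em on a Synergy 2. Inhibition was compared against DMSO vehicle controls, with chetomin as positive control.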

Row | Structure (SMILES) | 18 h Avg % max inhibition at top conc (HIF Rptr-24 hrs normoxia) (μM) | EC50 [µM]
1 | CCCC[C@H](NC(=O)[C@H](CC(C)C)NC(=O)[C@@H](NC(=O)[C@H](CCC(=O)O)NC(=O)[C@H](CCC(=O)O)NC(=O)[C@H](CC(=O)O)NC(=O)[C@@H](NC(=O)[C@H](Cc1ccccc1)NC(C)=O)[C@@H](C)CC)C(C)C)C(=O)N[C@@]1(C)CCCC=CCCC[C@@](C)(C(=O)N[C@@H](CCCC)C(=O)N[C@@H](C)C(=O)N[C@@H](CC(C)C)C(=O)N[C@@H](CC(=O)O)C(=O)N[C@@H](CCCNC(=N)N)C(=O)N[C@H](C(N)=O)[C@@H](C)CC)NC(=O)[C@H]([C@@H](C)CC)NC(=O)[C@H](CCC(=O)O)NC(=O)[C@H](CC(C)C)NC1=O [SP-36] (Ac-FIDEEVL[Nle][S5]LEI[S5][Nle]ALDRI-NH2; staple 9-13) | + (<10: +) | > 30
2 | CCCC[C@H](NC(=O)[C@H](CC(C)C)NC(=O)[C@@H](NC(=O)[C@H](CCC(=O)O)NC(=O)[C@H](C)NC(=O)[C@H](CC(=O)O)NC(=O)[C@@H](NC(=O)[C@H](Cc1ccccc1)NC(C)=O)[C@@H](C)CC)C(C)C)C(=O)N[C@@]1(C)CCCC=CCCC[C@@](C)(C(=O)N[C@@H](CCCC)C(=O)N[C@@H](C)C(=O)N[C@@H](CC(C)C)C(=O)N[C@@H](CC(=O)O)C(=O)N[C@@H](CCCNC(=N)N)C(=O)N[C@H](C(N)=O)[C@@H](C)CC)NC(=O)[C@H]([C@@H](C)CC)NC(=O)[C@H](C(C)C)NC(=O)[C@H](CC(C)C)NC1=O [SP-12] (Ac-FIDAEVL[Nle][S5]LVI[S5][Nle]ALDRI-NH2; staple 9-13) | ++++ (≥50: ++++) | 5 to 15
3 | CCCC[C@H](NC(=O)[C@H](CC(C)C)NC(=O)[C@@H](NC(=O)[C@H](CCC(=O)O)NC(=O)[C@H](CCC(=O)O)NC(=O)[C@H](CC(=O)O)NC(=O)[C@@H](NC(=O)[C@H](Cc1ccccc1)NC(C)=O)[C@@H](C)CC)C(C)C)C(=O)N[C@@]1(C)CCCC=CCCC[C@@](C)(C(=O)N[C@@H](CCCC)C(=O)NCC(=O)N[C@@H](CC(C)C)C(=O)N[C@@H](CC(=O)O)C(=O)N[C@@H](CCCNC(=N)N)C(=O)N[C@H](C(N)=O)[C@@H](C)CC)NC(=O)[C@H]([C@@H](C)CC)NC(=O)[C@H](C(C)C)NC(=O)[C@H](CC(C)C)NC1=O [SP-21] (Ac-FIDEEVL[Nle][S5]LVI[S5][Nle]GLDRI-NH2; staple 9-13) | ++++ (≥50: ++++) | 5 to 15
4 | CCCC[C@H](NC(=O)[C@H](CC(C)C)NC(=O)[C@@H](NC(=O)[C@H](CCC(=O)O)NC(=O)[C@H](CCC(=O)O)NC(=O)[C@H](CC(=O)O)NC(=O)[C@@H](NC(=O)[C@H](Cc1ccccc1)NC(C)=O)[C@@H](C)CC)C(C)C)C(=O)N[C@@]1(C)CCCC=CCCC[C@@](C)(C(=O)N[C@@H](CCCC)C(=O)N[C@@H](C)C(=O)N[C@@H](CC(C)C)C(=O)N[C@@H](CO)C(=O)N[C@@H](CCCNC(=N)N)C(=O)N[C@H](C(N)=O)[C@@H](C)CC)NC(=O)[C@H]([C@@H](C)CC)NC(=O)[C@H](C(C)C)NC(=O)[C@H](CC(C)C)NC1=O [SP-57] (Ac-FIDEEVL[Nle][S5]LVI[S5][Nle]ALSRI-NH2; staple 9-13) | ++++ (≥50: ++++) | 5 to 15
5 | CCCC[C@H](NC(=O)[C@H](CC(C)C)NC(=O)[C@H](C)NC(=O)[C@H](CCC(=O)O)NC(=O)[C@H](CCC(=O)O)NC(=O)[C@H](CC(=O)O)NC(=O)[C@@H](NC(=O)[C@H](Cc1ccccc1)NC(C)=O)[C@@H](C)CC)C(=O)N[C@@]1(C)CCCC=CCCC[C@@](C)(C(=O)N[C@@H](CCCC)C(=O)N[C@@H](C)C(=O)N[C@@H](CC(C)C)C(=O)N[C@@H](CC(=O)O)C(=O)N[C@@H](CCCNC(=N)N)C(=O)N[C@H](C(N)=O)[C@@H](C)CC)NC(=O)[C@H]([C@@H](C)CC)NC(=O)[C@H](C(C)C)NC(=O)[C@H](CC(C)C)NC1=O [SP-14] (Ac-FIDEEAL[Nle][S5]LVI[S5][Nle]ALDRI-NH2; staple 9-13) | ++++ (≥50: ++++) | 5 to 15
6 | CCCC[C@H](NC(=O)[C@H](CC(C)C)NC(=O)[C@@H](NC(=O)[C@H](CCC(=O)O)NC(=O)[C@H](CCC(=O)O)NC(=O)[C@H](CC(=O)O)NC(=O)[C@@H](NC(=O)[C@H](C)NC(C)=O)[C@@H](C)CC)C(C)C)C(=O)N[C@@]1(C)CCCC=CCCC[C@@](C)(C(=O)N[C@@H](CCCC)C(=O)N[C@@H](C)C(=O)N[C@@H](CC(C)C)C(=O)N[C@@H](CC(=O)O)C(=O)N[C@@H](CCCNC(=N)N)C(=O)N[C@H](C(N)=O)[C@@H](C)CC)NC(=O)[C@H]([C@@H](C)CC)NC(=O)[C@H](C(C)C)NC(=O)[C@H](CC(C)C)NC1=O [SP-9] (Ac-AIDEEVL[Nle][S5]LVI[S5][Nle]ALDRI-NH2; staple 9-13) | +++ (≤25 but <50: +++) | 15 to 30
7 | CCCC[C@H](NC(=O)[C@H](CC(C)C)NC(=O)[C@@H](NC(=O)[C@H](CCC(=O)O)NC(=O)[C@H](CCC(=O)O)NC(=O)[C@H](CC(=O)O)NC(=O)[C@@H](NC(=O)[C@H](Cc1ccccc1)NC(C)=O)[C@@H](C)CC)C(C)C)C(=O)N[C@@]1(C)CCCC=CCCC[C@@](C)(C(=O)N[C@@H](CCC(=O)O)C(=O)N[C@@H](C)C(=O)N[C@@H](CC(C)C)C(=O)N[C@@H](CC(=O)O)C(=O)N[C@@H](CCCNC(=N)N)C(=O)N[C@H](C(N)=O)[C@@H](C)CC)NC(=O)[C@H]([C@@H](C)CC)NC(=O)[C@H](C(C)C)NC(=O)[C@H](CC(C)C)NC1=O [SP-38] (Ac-FIDEEVL[Nle][S5]LVI[S5]EALDRI-NH2; staple 9-13) | ++++ (≥50: ++++) | 15 to 30
8 | CCCC[C@H](NC(=O)[C@H](CC(C)C)NC(=O)[C@@H](NC(=O)[C@H](CCC(=O)O)NC(=O)[C@H](CCC(=O)O)NC(=O)[C@H](CC(=O)O)NC(=O)[C@@H](NC(=O)[C@H](Cc1ccccc1)NC(=O)[C@H](CC(=O)O)NC(C)=O)[C@@H](C)CC)C(C)C)C(=O)N[C@@]1(C)CCCC=CCCC[C@@](C)(C(=O)N[C@@H](CCCC)C(=O)N[C@@H](C)C(=O)N[C@@H](CC(C)C)C(=O)N[C@@H](CC(=O)O)C(=O)N[C@@H](CCCNC(=N)N)C(=O)N[C@H](C(N)=O)[C@@H](C)CC)NC(=O)[C@H]([C@@H](C)CC)NC(=O)[C@H](C(C)C)NC(=O)[C@H](CC(C)C)NC1=O [SP-29] (Ac-DFIDEEVL[Nle][S5]LVI[S5][Nle]ALDRI-NH2; staple 10-14) | ++ (≤10 but <25: ++) | > 30
9 | CCCC[C@H](NC(=O)[C@H](CC(C)C)NC(=O)[C@@H](NC(=O)[C@H](CN)NC(=O)[C@H](CCC(=O)O)NC(=O)[C@H](CC(=O)O)NC(=O)[C@@H](NC(=O)[C@H](Cc1ccccc1)NC(C)=O)[C@@H](C)CC)C(C)C)C(=O)N[C@@]1(C)CCCC=CCCC[C@@](C)(C(=O)N[C@@H](CCCC)C(=O)N[C@@H](C)C(=O)N[C@@H](CC(C)C)C(=O)N[C@@H](CC(=O)O)C(=O)N[C@@H](CCCNC(=N)N)C(=O)N[C@H](C(N)=O)[C@@H](C)CC)NC(=O)[C@H]([C@@H](C)CC)NC(=O)[C@H](C(C)C)NC(=O)[C@H](CC(C)C)NC1=O [SP-63] (Ac-FIDE[Dap]VL[Nle][S5]LVI[S5][Nle]ALDRI-NH2; staple 9-13) | +++ (≤25 but <50: +++) | 5 to 15
10 | CCCC[C@H](NC(=O)[C@H](CC(C)C)NC(=O)[C@@H](NC(=O)[C@H](CCC(=O)O)NC(=O)[C@H](CCC(=O)O)NC(=O)[C@H](CC(=O)O)NC(=O)[C@@H](NC(=O)[C@H](Cc1ccccc1)NC(C)=O)[C@@H](C)CC)C(C)C)C(=O)N[C@@]1(C)CCCC=CCCC[C@@](C)(C(=O)N[C@@H](CCCC)C(=O)N[C@@H](C)C(=O)N[C@@H](CC(C)C)C(=O)N[C@@H](CC(=O)O)C(=O)N[C@@H](CCCNC(=N)N)C(=O)N[C@H](C(=O)N[C@@H](CCC(=O)O)C(N)=O)[C@@H](C)CC)NC(=O)[C@H]([C@@H](C)CC)NC(=O)[C@H](C(C)C)NC(=O)[C@H](CC(C)C)NC1=O [SP-43] (Ac-FIDEEVL[Nle][S5]LVI[S5][Nle]ALDRIE-NH2; staple 9-13) | +++ (≤25 but <50: +++) | > 30
11 | CCCC[C@H](NC(=O)[C@H](CC(C)C)NC(=O)[C@@H](NC(=O)[C@H](CCC(=O)O)NC(=O)[C@H](CCC(=O)O)NC(=O)[C@H](CC(=O)O)NC(=O)[C@H](CCC(=O)O)NC(=O)[C@H](Cc1ccccc1)NC(C)=O)C(C)C)C(=O)N[C@@]1(C)CCCC=CCCC[C@@](C)(C(=O)N[C@@H](CCCC)C(=O)N[C@@H](C)C(=O)N[C@@H](CC(C)C)C(=O)N[C@@H](CC(=O)O)C(=O)N[C@@H](CCCNC(=N)N)C(=O)N[C@H](C(N)=O)[C@@H](C)CC)NC(=O)[C@H]([C@@H](C)CC)NC(=O)[C@H](C(C)C)NC(=O)[C@H](CC(C)C)NC1=O [SP-31] (Ac-FEDEEVL[Nle][S5]LVI[S5][Nle]ALDRI-NH2; staple 9-13) | + (<10: +) | > 30
12 | CCCC[C@H](NC(=O)[C@H](CC(C)C)NC(=O)[C@@H](NC(=O)[C@H](CCC(=O)O)NC(=O)[C@H](CCC(=O)O)NC(=O)[C@H](CC(=O)O)NC(=O)[C@@H](NC(=O)[C@H](CO)NC(C)=O)[C@@H](C)CC)C(C)C)C(=O)N[C@@]1(C)CCCC=CCCC[C@@](C)(C(=O)N[C@@H](CCCC)C(=O)N[C@@H](C)C(=O)N[C@@H](CC(C)C)C(=O)N[C@@H](CC(=O)O)C(=O)N[C@@H](CCCNC(=N)N)C(=O)N[C@H](C(N)=O)[C@@H](C)CC)NC(=O)[C@H]([C@@H](C)CC)NC(=O)[C@H](C(C)C)NC(=O)[C@H](CC(C)C)NC1=O [SP-44] (Ac-SIDEEVL[Nle][S5]LVI[S5][Nle]ALDRI-NH2; staple 9-13) | +++ (≤25 but <50: +++) | 15 to 30
